From patent US20250101378A1, “CULTURE MEDIUM AND CULTURE METHOD FOR MAMMARY EPITHELIAL CELLS, AND USE OF MAMMARY EPITHELIAL CELLS” (PRECEDO PHARMACEUTICALS CO., LTD, priority 2022, published 2025)

B1: fibroblast growth factor 10 (protein, UniProt O15520 38-208, looked up)
Fibroblast growth factor 10: QALGQDMVSPEATNSSSSSFSSPSSAGRHVRSYNHLQGDVRWRKLFSFTKYFLKIEKNGKVSGTKKENCPYSILEITSVEIGVVAVKAINSNYYLAMNKKGKLYGSKEFNNDCKLKERIEENGYNTYASFNWQHNGRQMYVALNGKGAPRRGQKTRRKNTSAHFLPMVVHS
notes: growth factor used as culture medium additive

Assays:
Format in all cases: cell-based, human
[1] = system: breast tumor cells (5 #); test: In vitro drug sensitivity test, Cell Titer-Glo cell viability; conditions: 72 hours after drug administration, 1:3 dilution series from 2 times Cmax
Description: I. Plating of primary breast cancer cells: using the culture medium of the invention in section (5) of Example 1, breast tumor cells (5 #) were cultured by the method described in section (1) of Example 2, and the cells were inoculated in a 384-well plate at a density of 3000 to 5000 cells/well, and the cells were subjected to adherent culture overnight.
(1) The drug storage plate was prepared by the concentration gradient dilution method: 10 μL of the drug stock solutions to be tested (the concentration of the drug stock solution was prepared at 2 times the maximum plasma concentration Cmax of the drug in the human body) were respectively taken and added to a 0.5 mL EP tube containing 20 μL of DMSO, and then 10 μL was aspirated from the above EP tube into a second 0.5 mL EP tube containing 20 μL of DMSO, that is, the drug was diluted 1:3. The above process was repeated for gradually dilution until 8 or 9 concentrations required for dosing were obtained. Different concentrations of drugs were added to the 384-well drug storage plate. Equal volume of DMSO was added to each well of the solvent control group as a control. In this example, the drugs to be tested are clinically approved anti-tumor drugs, docetaxel (MCE), palbociclib (MCE), dovitinib (MCE), capecitabine (MCE), crizotinib (MCE) and etoposide (MCE).
(2) Using a high-throughput automated workstation (purchased from Perkin Elmer), different concentrations of drugs and solvent controls in the 384-well drug storage plates were added to the 384-well cell culture plates plated with the breast tumor cells. Both the drug groups and the solvent control groups were set up with 3 replicate wells. The volume of drug added to each well was 100 nL.
(3) Cell activity detection: 72 hours after drug administration, Cell Titer-Glo assay kit (manufactured by Promega) was used to detect the chemiluminescence value of the cultured cells after drug administration. The magnitude of the chemiluminescence value reflects the cell viability and the effect of the drug on the cell viability. The prepared Cell Titer-Glo detection solution was added to each well, and a microplate reader was used to detect the chemiluminescence value after mixing.
Graphpad Prism 7.0 software was used to draw graphs and calculate the median inhibition concentration IC50.

[2] = system: primary breast cancer cells isolated from breast tumor tissue; test: Screening of additive factors in the culture medium of primary mammary epithelial cells (cell count after 14 days); design: key to Level of promoting proliferation: +: compared with the Basal Medium, the culture medium added with the additive(s) has the effect of promoting the proliferation of at least three cases of primary breast cancer cells isolated from breast tumor tissue; ++: the number of “+” indicates the degree of proliferation promotion; ++++: the number of “+” indicates the degree of proliferation promotion; −: the culture medium added with the additive(s) has the effect of inhibiting the proliferation of at least two cases of primary breast cancer cells isolated from breast tumor tissue; the culture medium added with the additive(s) has no significant effect on the proliferation of at least three cases of primary breast cancer cells isolated from breast tumor tissue; conditions: 14 days of culture; for Level of promoting proliferation: additive added to Basal Medium at the concentration of Table 1, cell count compared with Basal Medium, five breast tumor samples; for promotion of growth of primary breast tumor cells (in words): additive added to Basal Medium, compared with Basal Medium
Description: First, a basal culture medium based on WO 2021/088119 was prepared. To a commercially available DMEM/F-12 culture medium, GlutaMAX-I (manufactured by Thermo Fisher Scientific) was added at the concentration specified in the instruction manual (1:100 dilution), human insulin (Sigma) was added at a final concentration of 10 μg/ml, ROCK inhibitor Y27632 (Sigma) was added at a final concentration of 10 μM, penicillin-streptomycin (Thermo Fisher Scientific) was added at a 1:100 dilution, human amphiregulin (manufactured by R&D systems) was added at a final concentration of 20 ng/ml, epidermal growth factor (EGF, manufactured by Peprotech) was added at a final concentration of 10 ng/ml, B27 (Thermo Fisher Scientific) was added at a 1:50 dilution, human neuregulin 1 (Peprotech) was added at a final concentration of 10 nM, fibroblast growth factor 7 (FGF7, R&D systems) was added at a final concentration of 10 ng/ml), and TGFβ1 inhibitor A8301 (manufactured by MCE) was added at a final concentration of 500 nM, to prepare a basal culture medium for primary mammary epithelial cells, hereinafter referred to as “Basal Medium”.
Then, different types of additives (Table 1) were added to the Basal Medium to prepare culture mediums for mammary epithelial cells containing different additives. The culture medium with different components was added to a 24-well plate coated with extracellular matrix gel at a volume of 500 μl/well, and 3 replicates were prepared for each culture medium formulation. The breast cancer cells (1 #) isolated from the breast tumor tissue in Example (1) were inoculated at a cell density of 3×10^4 cells/well in a 24-well culture plate coated with extracellular matrix gel, and cultured at 37° C. and 5% CO2 concentration using different culture medium formulations, respectively. The culture medium was replaced every 3 days after the start of culture. After 14 days of culture, the cells were counted. Basal Medium without addition of any additive shown in Table 1 was used as an experimental control.
The tumor cells isolated from the rest four cases of breast tumor tissue samples were also cultured and counted in the same manner as above.

[3] = system: primary breast cancer cells (2 #); test: Optimization of the concentration of additives in the culture medium (cell count on day 14, FIGS. 1A-1G); conditions: graded concentrations added to Formulations 1-7, 96-well plate, day 14 cell count
Description: The following 7 different formulations of culture mediums were further prepared: • Formulation 1: the Basal Medium was added with 1:100-fold diluted MEM-NEAA, 1 mM sodium pyruvate, 50 ng/ml IGF1, 20 ng/ml bFGF, 10 ng/ml TNF-α and 20 ng/ml FGF10; • Formulation 2: the Basal Medium was added with 10 nM β-estradiol, 1 mM sodium pyruvate, 50 ng/ml IGF1, 20 ng/ml bFGF, 10 ng/ml TNF-α and 20 ng/ml of FGF10; • Formulation 3: the Basal Medium was added with 10 nM β-estradiol, 1:100-fold diluted MEM-NEAA, 50 ng/ml IGF1, 20 ng/ml bFGF, and 10 ng/ml TNF-α and 20 ng/ml FGF10; • Formulation 4: the Basal Medium was added with 10 nM β-estradiol, 1:100-fold diluted MEM-NEAA, 1 mM sodium pyruvate, 20 ng/ml bFGF, and 10 ng/ml TNF-α and 20 ng/ml FGF10; • Formulation 5: the Basal Medium was added with 10 nM β-estradiol, 1:100-fold diluted MEM-NEAA, 1 mM sodium pyruvate, 50 ng/ml IGF1, and 10 ng/ml TNF-α and FGF10 at 20 ng/ml; • Formulation 6: the Basal Medium was added with 10 nM β-estradiol, 1:100-fold diluted MEM-NEAA, 1 mM sodium pyruvate, 50 ng/ml IGF1, 20 ng/ml bFGF and 20 ng/ml FGF10; • Formulation 7: the Basal Medium was added with 10 nM β-estradiol, 1:100-fold diluted MEM-NEAA, 1 mM sodium pyruvate, 50 ng/ml IGF1, 20 ng/ml bFGF and 10 ng/ml of TNF-α.
Subsequently, β-estradiol (Sigma) was added to Formulation 1 to prepare culture mediums for human mammary epithelial cells containing β-estradiol at final concentrations of 5 nM, 10 nM, 50 nM, and 100 nM, and each culture medium was added to a 96-well plate coated with Matrigel at a volume of 100 μl/well, with 3 replicates for each concentration. The primary breast cancer cells (2 #) isolated from breast tumor tissue in Example (1) were seeded in a Matrigel-coated 96-well culture plate at a density of 500 cells/well and cultured in Formulation 1 containing different concentrations of β-estradiol at 37° C. and 5% CO2. The culture medium was replaced every 3 days after the start of culture. On the 14th day of culture, the cells were counted. Formulation 1 was used as an experimental control, i.e., the content of β-estradiol was 0 nM.
Non-essential amino acids (MEM-NEAA) additive (Thermo Fisher) was added to Formulation 2 at a dilution ratio of 1:200, 1:100, 1:50, and 1:20 to prepare culture mediums for human mammary epithelial cells containing different concentrations of non-essential amino acids. The culture mediums of different formulations were added to a 96-well plate coated with Matrigel at a volume of 100 μl/well, with 3 replicates for each concentration. Primary cells were cultured and counted in the same manner as above. As an experimental control, Formulation 2 was used, i.e., the content of non-essential amino acids was 0.
Similarly, sodium pyruvate (Thermo Fisher) was added to Formulation 3 to prepare culture mediums for human mammary epithelial cells containing sodium pyruvate at final concentrations of 0.5 mM, 1 mM, 2 mM, and 4 mM. […] Primary cells were cultured and counted in the same manner as above. […]
Then, insulin-like growth factor 1 (IGF1, manufactured by R&D) was added to formulation 4 to prepare culture mediums for human mammary epithelial cells containing IGF1 at final concentrations of 10 ng/ml, 20 ng/ml, 50 ng/ml, 100 ng/ml, and 200 ng/ml, and the culture mediums containing different concentrations of IGF1 were added to a 96-well plate coated with Matrigel at a volume of 100 μl/well, with 3 replicates for each concentration. Primary cells were cultured and counted in the same manner as above. […]

Molecule	sensitivity of breast cancer cells to drug (in words) [1]	Level of promoting proliferation [2]	effect on in vitro proliferation of primary breast cancer cells (in words) [3]	promotion of growth of primary breast tumor cells (in words) [2]
CCCCCOC(=O)Nc1nc(=O)n([C@@H]2O[C@H](C)[C@@H](O)[C@H]2O)cc1F [capecitabine]	less sensitive			
C[C@@H](Oc1cc(-c2cnn(C3CCNCC3)c2)cnc1N)c1c(Cl)ccc(F)c1Cl [crizotinib]	less sensitive			
CC(=O)O[C@@]12CO[C@@H]1C[C@H](O)[C@@]1(C)C(=O)[C@H](O)C3=C(C)[C@@H](OC(=O)[C@H](O)[C@@H](NC(=O)OC(C)(C)C)c4ccccc4)C[C@@](O)([C@@H](OC(=O)c4ccccc4)[C@H]21)C3(C)C [docetaxel]	more sensitive			
COc1cc([C@@H]2c3cc4c(cc3[C@@H](O[C@@H]3O[C@@H]5CO[C@@H](C)O[C@H]5[C@H](O)[C@H]3O)[C@H]3COC(=O)[C@H]23)OCO4)cc(OC)c1O [etoposide]	more sensitive			
CC(=O)C(=O)[O-].[Na+] [sodium pyruvate]		∘		
C[C@]12CC[C@@H]3c4ccc(O)cc4CC[C@H]3[C@@H]1CC[C@@H]2O [β-estradiol]		∘	obvious proliferative effects	
basic fibroblast growth factor		++	obvious proliferative effects	stronger
insulin-like growth factor 1		+	obvious proliferative effects	promote the growth
tumor necrosis factor α		++	obvious proliferative effects	stronger
B1		+	dose-dependent pro-proliferation effect	promote the growth
